Patent US20210169910A1, “OLEUROPEIN FOR USE IN REDUCING POST-PRANDIAL GLYCAEMIA” (Università degli Studi di Roma "La Sapienza", priority 2017, published 2021)

What was measured:
Assay type in all cases: in vivo, human
8-iso-PGF2α = experiment: Serum isoprostanes (8-iso-PGF2α-III) enzyme immunoassay, post-prandial cross-over study; settings: healthy subjects (n=20), 20 mg immediately before lunch, T120 vs T0
Method: (§1) The design was a randomized, double blind, placebo controlled, crossover study (FIG. 1). Participants were randomized to receive 20 mg of oleuropein or 20 mg of placebo immediately before a lunch. The randomization was carried out by a procedure based on a random numeric sequence. Placebo and active capsules were identical in appearance and both were odourless. The quality control on both capsules was performed confirming their safety. None of the participants were receiving any vitamin or antioxidant supplements, statin or antiplatelet drugs in the month preceding the beginning of the study. Others exclusion criteria were: i) presence of malignancy, ii) presence of chronic inflammatory diseases, iii) alcohol intake, iv) smoking, v) pregnant or breast-feeding, vi) age less than 18 years. […] Participants were assessed at baseline (T0) and two hours after lunch (T120). Glycaemic profile, which included glucose, insulin, dipeptidyl-peptidase-4 (DPP-4) activity and glucagon-like peptide-(GLP-1) and oxidative stress, which included sNox2-dp, 8-iso-PGF2α and platelet p47phox phosphorylation, were analysed before and two hours after meal. […]
Serum isoprostanes (8-iso-PGF2α-III) were measured by the enzyme immunoassay method (DRG International) and expressed as pmol/L. Intra-assay and inter-assay coefficients of variation were <10%.

[1] = Serum glucose concentration, post-prandial cross-over study
Method: as §1
(§2) Glucose and insulin were measured in serum samples using ELISA commercial Kit (Arbor Assay and DRG International, respectively). Glucose values were expressed as mg/dl whereas insulin values were expressed as μIU/ml.

GLP1 = experiment: Serum glucagon like peptide-1 (GLP1) concentration, post-prandial cross-over study; settings: healthy subjects (n=20), 20 mg immediately before lunch, T120 vs T0
Method: as §1
Commercial ELISA Kit (DRG International) was used for the quantitative determination of bioactive GLP1 (7-36) and (9-36) levels in serum. GLP1 values are expressed as pmol/L.

p47phox = experiment: Western blot analysis of platelet p47phox phosphorylation, post-prandial cross-over study; settings: healthy subjects (n=5), 20 mg immediately before lunch, T120 vs T0
Method: as §1, with “study.” for “study. Others exclusion criteria were: i) presence of malignancy, ii) presence of chronic inflammatory diseases, iii) alcohol intake, iv) smoking, v) pregnant or breast-feeding, vi) age less than 18 years.”
p47^phox phosphorylation was analysed in platelets prepared as previously described [13 Carnevale et al., 2014 a)]. […] Then, the membranes were incubated with goat anti-rabbit secondary antibody (Santa Cruz Biotechnology—Product Code sc2004, 1:5000) or with goat anti-mouse secondary antibody (Santa Cruz Biotechnology—Product Code sc2005, 1:5000) and then the immune complexes were detected by enhanced chemiluminescence substrate. […]

insulin = experiment: Serum insulin concentration, post-prandial cross-over study; settings: healthy subjects (n=20), 20 mg immediately before lunch, T120 vs T0
Method: as §1, §2

Nox2 = experiment: Serum Nox2 measured as soluble Nox2-derived peptide (sNox2dp) by ELISA, post-prandial cross-over study; settings: healthy subjects (n=20), 20 mg immediately before lunch, T120 (2 h after meal) vs T0
Method: as §1, with “study.” for “study. Others exclusion criteria were: i) presence of malignancy, ii) presence of chronic inflammatory diseases, iii) alcohol intake, iv) smoking, v) pregnant or breast-feeding, vi) age less than 18 years.”
Serum Nox2 was measured as soluble Nox2-derived peptide (sNOX2dp) with an ELISA method, which was partly modified in comparison to that previously reported (Pignatelli et al., 2010; WO 2010142794 A1). […]
4) quantification of immobilized antibody enzyme conjugates by monitoring HRP activities in the presence of the substrate 3,3′,5,5′-tetramethylbenzidine (TMB). […] Values were expressed as pg/ml; intra-assay and inter-assay coefficients of variation were <10%.

DPP-4 = experiment: Serum dipeptidyl peptidase-4 (DPP-4) activity, post-prandial cross-over study; settings: healthy subjects (n=20), 20 mg immediately before lunch, T120 vs T0
Method: as §1
DDP4 activity was evaluated in serum samples by a commercial assay (Sigma Aldrich). […] DDP4 activity was expressed as μU/ml, where one unit of DPP4 is the amount of enzyme that will hydrolyze the DPP4 substrate to yield 1.0 μmole of AMC per minute at 37° C.

C/C=C1/[C@H](O[C@@H]2O[C@H](CO)[C@@H](O)[C@H](O)[C@H]2O)OC=C(C(=O)OC)[C@H]1CC(=O)OCCc1ccc(O)c(O)c1 [oleuropein]
8-iso-PGF2α, Δ change compared to baseline (8-iso-PGF2α): 8% | blood glucose, Δ change compared to baseline ([1]; healthy subjects (n=20), 20 mg immediately before lunch, T120 vs T0): 2% | average reduction of glucose ([1]; healthy subjects, 20 mg versus placebo, post-prandial): 14 mg/dL | GLP1, Δ change compared to baseline (GLP1): 19% | platelet p47phox phosphorylation, Δ change compared to baseline (p47phox): 42% | blood insulin, Δ change compared to baseline (insulin): 116% | sNox2-dp, Δ change compared to baseline (Nox2): 25% | DPP-4 activity, Δ change compared to baseline (DPP-4): 35%
